# “Also recorded” adds a separate entry of the source.
# System: mung bean hypocotyl cuttings
# Experiment: Comparative mung bean bioassay: rooting response of stem cuttings versus seaweed products and IAA/IBA standards (Example 6)
# Assay type: in vivo
# Details: for pH: 30 mg/L; for stem growth, length: 1% dilution; for concentration with the higher number of roots developed: range 0 to 30 mg/L
# Excerpt: A composition comparative study further embodiment described in detail in Example 6. to determine the concertation of Auxins in relation to Standard indole-3-Butiric acid (IBA) and indole-3-acetic (IAA) embodied in the examples Duckweed Biotech product is a combination of three aquatic plants of the Aracea family, which is compared with commercial seaweed products: Product (1) “K” and Product (2) “M”. The dilutions were made from the liquid concentrated products and the Duckweed Biotech from a natural concentrate extraction of three duckweed species. The equivalent phytohormone activity of IAA and IBA was established by the number of roots to the corresponding treatment dilution and interpolating the number of roots to the corresponding hormone concentration to obtain the total activity in mg/L of the commercial product.
# Two commercial giant brown kelp seaweed products, Product (1) “K” made of Ecklonia maxima and Product (2) “M” made of Ascophyllum nodosum were compared with the Duckweed Biotech Product “D” made of a combination of Duckweed aquatic plants of the Araceae family of plants formally known as Lemnaceae family of plants. For the test, a series of dilutions from 0% to 50% were made from the concentrated commercial products.
# The preparation of standards was performed using a concentration range of 0, 1, 2, 5, 10, 15, 20 and 30 mg/L of indole-3-butyric acid (IBA) and indole-3-acetic acid (IAA) as shown in Table 20. A dose growth response curve for rooting ability was produced using these auxins.
# The mung bean bioassay was used to evaluate plant growth and rooting stimulation response of three products: Duckweed Biotech Product “D”, Product (1) “K” and Product (2) “M”.
# The seeds of mung bean seeds were rinse thoroughly with water and soak for […]. in DI water. 2. The seeds were planted in microgreen trays for germination process at 26° C. After 8 days, uniform hypocotyl cuttings with 8 cm length with 2 primary leaves and without cotyledon were transferred to the treatment vials. The cuttings are rinsed with DI water and then soak in 20 mL treatment test solutions for 8 hr. The treatment solutions include Duckweed Biotech Product “D”, Product (1) “K”, Product (2) “M”, indole-3-acetic acid (IAA), and indole-3-butyric acid (IBA). The treatments are follows: • IBA & IAA concentrations: 0, 1, 2, 5, 10, 15, 20 and 30 mg/L • Duckweed Biotech Product “D” Conc.: 0, 0.5, 1, 2, 5, 10, 20 and 50% • Product (1) “K” Conc.: 0, 0.5, 1, 2, 5, 10, 20 and 50% • Product (2) “M” Conc.: 0, 0.5, 1, 2, 5, 10, 20 and 50%
# 3 After the treatments, the seedling base cuttings were rinsed with DI water and transferred to clean vials with glass beads containing 60 mL of DI water for 8 days. Two cuttings were placed in each vial and two vials were used for each treatment. The vials are left at 28±3° C. ambient air temperature and under lighting at 135 μmol photons m^−2 s^−1 in a 16-h day/8-h night cycle. The humidity is maintained over 60%.
# 4. After 8 days, the number of roots per hypocotyl was recorded. The plant quality and stem length were also evaluated. The data collected was organized and analyzed using Microsoft Excel
# The plant growth and rooting response of each treatment were recorded after 8 days. The rooting response was evaluated based on number of roots developed per cutting. The average number of roots of three cuttings per treatment was used to determine the effectiveness of the treatments. Plant quality and stem length were also recorded. […] The plants with higher rooting response were found at 2% with duckweed treatment with 67 roots. Whereas Product (1) “K” at 20% dilution stimulated root production with 46 roots and Product (2) “M” at 2% dilution with 32 roots. A decline of rooting stimulation was found at 50% dilution for all evaluated products (FIG. 35 & FIG. 36) that coincides with previous research literature for brown kelp extract products. […]
SMILES,pH,"stem growth, length [cm]",concentration with the higher number of roots developed [mg/L],"root formation, IBA compared with IAA (in vivo)"
"O=C(O)Cc1c[nH]c2ccccc12 [IAA, indole-3-acetic acid]",6.92,15,30,–
"O=C(O)CCCc1c[nH]c2ccccc12 [IBA, indole-3-butyric acid]",6.53,15,30,stimulated more roots in all concentrated treatments than IAA; also recorded: more effective than indol-3-acetic acid (IAA) in root development

# — US20250072433A1, “ORGANIC CONCENTRATED VITAMINE-PHYTOHORMONE WITH NATURAL BIO-STIMULANT PROPERTIES AS FERTILIZER CONCENTRATED EXTRACT OF DUCKWEED ARACEA FAMILY OF PLANTS FORMALY KNOWN AS LEMNACEAE SINGLE OR COMBINED SPECIES THAT CAN INCLUDE ALSO COMPOUNDED MULTIPLE FORMULATED AQUATIC PLANTS EXTRACTS TO NATURALY …” (priority 2021, published 2025)
